In patent publication US12419879B2, “Combination therapy for the treatment of pancreatic cancer” (Genentech, Inc., priority 2016, dated 2025):

Assays:
KP4 cells = test: Small molecule inhibitor screen of KP4 cells in 2D monolayer and 3D spheroid cultures; type: cell-based, human; conditions: 2D monolayer vs 3D spheroid
Description: Cell viability assays were performed by treating cells with a dose titration (0.001 to 10 μM) or fixed dose (1 μM) of the various pharmacologic inhibitors for 72 hrs and measuring viability using CellTiter Glo (Promega). Bliss scores were calculated as described previously. (Borisy A A, Elliott P J, Hurst N W, Lee M S, Lehar J, Price E R, Systematic discovery of multicomponent therapeutics, Proceedings of the National Academy of Sciences of the United States of America, 2003; 100(13):7977-82, Epub 2003/06/12).
To compare how pancreatic cancer cells cultured in 2-dimensional (2D) and 3-dimensional (3D) cultures respond to various cancer therapeutic agents, we treated the KAS mutant PDAC cancer cell line KP4 with a panel of 203 small molecule inhibitors of cancer-relevant targets and known chemotherapeutics (Table 1).
For 3D cultures, described herein is a method to facilitate a relatively rapid “high-throughput” analysis. […] Their drug sensitivity pattern was also similar to previously described spheroids (FIGS. 28 & 29).

PDAC cell lines = test: Cell viability assay (CellTiter Glo) with Bliss analysis in PDAC cell lines, 2D and 3D; type: cell-based, human
Description: Cell viability assays were performed by treating cells with a dose titration (0.001 to 10 μM) or fixed dose (1 μM) of the various pharmacologic inhibitors for 72 hrs and measuring viability using CellTiter Glo (Promega). Bliss scores were calculated as described previously.

KPP xenografts = type: in vivo; conditions: cobimetinib 5 mg/kg and/or ponatinib 30 mg/kg, PO, QD; for Tumor volume (last day): in mm³ (unit assumed)
Description: (§1) All animal studies were carried out in compliance with National Institutes of Health Guide for the Care and Use of Laboratory Animals. […] Two xenograft models were used: the human PDAC-derived cell line KP4 and cells derived from tumors isolated from KPP GEMM mice. 5×10^6 cells were subcutaneously implanted into the right flanks of immune-deficient mice (Charles River Laboratories) without using any Matrigel. […] Tumor volumes were measured using Ultra-Cal IV calipers at the indicated intervals. To appropriately analyze the repeated measurement of tumor volumes from the same animals over time, a mixed modeling approach was used. (Jose Pinheiro D B, Saikat DebRoy, Deepayan Sarkar, R Core team. Linear and Nonlinear mixed effects models. Package ‘nlme’2008). This approach addresses both repeated measurements and modest dropouts due to any non-treatment-related deaths of animals before the study end. Cubic regression splines were used to fit a non-linear profile to time courses of log2 tumor volume at each dose level. These non-linear profiles were then related to the dose within the mixed model.
(§2) To determine the uncertainty intervals (UIs) for % TGI, the fitted curve and the fitted covariance matrix were used to generate a random sample as an approximation to the distribution of % TGI. […] The reported UIs were the values for which 95% of the time the recalculated values of % TGI would fall in this region given the fitted model. The 2.5 and 97.5 percentiles of the simulated distribution were used as the upper and lower UIs. Tumor growth inhibition >60% was considered meaningful. (Wong H, Choo E F, Alicke B, Ding X, La H, McNamara E, Antitumor activity of targeted and cytotoxic agents in murine subcutaneous tumor models correlates with clinical response, Clinical Cancer Research: an official journal of the American Association for Cancer Research, 2012; 18(14):3846-55. Epub 2012/06/01).
(§3) Plotting was performed and generated using R, version 2.8.1 (R Development Core Team 2008; R Foundation for Statistical Computing; Vienna, Austria) and Excel, version 12.0.1 (Microsoft Corporation). Data were analyzed using R, version 2.8.1, and the mixed models were fit within R using the nlme package, version 3.1-89 (41).

KP4 xenografts = type: in vivo
Description: as §1, §2, §3

xenograft tumors = test: Histopathology, IHC/IF staining and immunoblotting of grafted tumors; type: in vivo, mice
Description: Cells were seeded in 10 cm dishes and treated with 1 μM of small molecule inhibitors for 24 hrs. Cell lysates were prepared in RIPA lysis buffer (Thermo Scientific) containing a protease inhibitor cocktail (Thermo Scientific), SDS-PAGE was performed and proteins were transferred to nitrocellulose membranes. Immunoblotting was performed using standard methods. Protein bands were quantified using ImageJ software. Primary antibodies: p-Erk, p-STAT3, p-S6, total-S6, p-PDGFRα, p-PDGFRβ, p-RSK3, cleaved PARP, Bcl-xL, Mcl, survivin, Rab11, p-Akt, β-Actin, GAPDH (Cell Signaling), total-STAT3, total-PDGFRα (Santa Cruz Biotechnology), p-EphA7 (Gene Tex) and p-EphA2/3, EphA2/5 (MyBioscource). Immunohistochemistry and immunofluorescence were performed on 4 μm thick sections cut from formalin-fixed paraffin-embedded cell pellets, whole tissue sections, and TMA blocks (US Biomax, Inc.). Slides were deparaffinized and antigen unmasking was performed on PT Module (Thermo Scientific) with Target Retrieval Solution (Dako). […] Antibody binding was detected using Vecstatin ABC Elite horseradish peroxidase (Vector Laboratories) or PowerVision Poly-HRP (Leica Biosystems) and metal-enhanced 3, 3′-diaminobenzidine (Pierce) for IHC stainings and PowerVision Poly-HRP (Leica Biosystems) along with TSA kits (Life Technologies) for immunofluorescence staining. […]

[1] = tested on: PDGFRα, S6 and STAT3 activation; test: Western blot of signaling proteins in PDAC cells (2D and 3D); type: cell-based, human; conditions: KP4 cells
Description: Cells were seeded in 10 cm dishes and treated with 1 μM of small molecule inhibitors for 24 hrs. Cell lysates were prepared in RIPA lysis buffer (Thermo Scientific) containing a protease inhibitor cocktail (Thermo Scientific), SDS-PAGE was performed and proteins were transferred to nitrocellulose membranes. Immunoblotting was performed using standard methods. Protein bands were quantified using ImageJ software. Primary antibodies: p-Erk, p-STAT3, p-S6, total-S6, p-PDGFRα, p-PDGFRβ, p-RSK3, cleaved PARP, Bcl-xL, Mcl, survivin, Rab11, p-Akt, β-Actin, GAPDH (Cell Signaling), total-STAT3, total-PDGFRα (Santa Cruz Biotechnology), p-EphA7 (Gene Tex) and p-EphA2/3, EphA2/5 (MyBioscource).

IL-6 secretion = IL-6 secretion in 2D culture supernatants of PDAC cell lines; type: cell-based, human; conditions: multiple PDAC cell lines, 24 hrs
[2] = tested on: serum growth factors and cytokines; test: Luminex assay / ELISA of plasma samples of KP4 xenograft mice; type: in vivo
[3] = cobimetinib 5 mg/kg and/or ponatinib 30 mg/kg, PO, QD

## CS(=O)(=O)N1CCN(Cc2cc3nc(-c4cccc5[nH]ncc45)nc(N4CCOCC4)c3s2)CC1 [GDC-0941]
KP4 cells
  differential sensitivity of 3D versus 2D cultures: more effective on 3D cultures than the 2D cultures

## Cc1c(CN2CCN(C(=O)[C@H](C)O)CC2)sc2c(N3CCOCC3)nc(-c3cnc(N)nc3)nc12 [GDC-0980]
KP4 cells
  differential sensitivity of 3D versus 2D cultures: more effective on 3D cultures than the 2D cultures

## O=C(NOC[C@H](O)CO)c1ccc(F)c(F)c1Nc1ccc(I)cc1F [PD901]
KP4 cells
  differential sensitivity of 3D versus 2D cultures: more effective on 3D cultures than the 2D cultures

## Cc1ccc(C(=O)Nc2ccc(CN3CCN(C)CC3)c(C(F)(F)F)c2)cc1C#Cc1cnc2cccnn12 [Ponatinib]
PDAC cell lines
  effect on cell viability as single agents: no effect on cell viability
KPP xenografts
  TTP 2X (Time to Tumor Progression, 2X original volume): 7
  Tumor volume (last day): 1045
KP4 xenografts
  effect on tumor growth (in words): ineffective as single agents
KP4 xenografts; [3]
  TTP 2X (Time to Tumor Progression, 2X original volume): 8.5
  Tumor volume (last day): 408 mm³

## O=C(NOCCO)c1ccc2cncn2c1Nc1ccc(I)cc1F [GDC-0623]
KP4 cells
  differential sensitivity of 3D versus 2D cultures: more effective on 3D cultures than the 2D cultures

## O=C(c1ccc(F)c(F)c1Nc1ccc(I)cc1F)N1CC(O)([C@@H]2CCCCN2)C1 [Cobimetinib]
Xenograft tumors
  p-PDGFRα, p-STAT3 and pS6 in grafted tumors: induction
[1]
  activation of p-PDGFRα, p-STAT3 and p-S6 (western blot): increased level of activation
PDAC cell lines
  effect on cell viability as single agents: no effect on cell viability
KPP xenografts
  % TGI (AUC vs. Vehicle): 31%
  TTP 2X (Time to Tumor Progression, 2X original volume): 6.5
  Tumor volume (last day): 917
KP4 xenografts
  effect on tumor growth (in words): ineffective as single agents
KP4 xenografts; [3]
  % TGI (AUC vs. Vehicle): 70%
  TTP 2X (Time to Tumor Progression, 2X original volume): 13
  Tumor volume (last day): 532 mm³
IL-6 secretion
  secretion of IL-6: increased secretion of the IL-6 ligand
[2]
  serum growth factor and cytokine levels: Significantly elevated serum levels of PDGFα, PDGFβ, and increased levels of IL-6
KP4 cells
  differential sensitivity of 3D versus 2D cultures: more effective on 3D cultures than the 2D cultures

## Cn1cnc2c(F)c(Nc3ccc(Br)cc3Cl)c(C(=O)NOCCO)cc21 [AZD6244]
KP4 cells
  differential sensitivity of 3D versus 2D cultures: more effective on 3D cultures than the 2D cultures
